Read-outs that look alike come from different tables or passages of the source.
How the values were obtained:
[1] = tested on: Streptococcus pyogenes 308 A; assay: In vitro anti-bacterial activity test (MIC, two-fold dilution method) against the standard strains; format: cell-based; conditions: Table 1 strain 1: Streptococcus pyogenes 308 A
[2] = tested on: Streptococcus pyogenes 77 A; assay: as above; format: cell-based; conditions: Table 1 strain 2: Streptococcus pyogenes 77 A; read-out: MIC
[3] = tested on: Streptococcus faecium MD 8b; assay: as above; format: cell-based; conditions: Enterococcus faecium, MD8B; Table 1 strain 3: Streptococcus faecium MD 8b; read-out: MIC
[4] = tested on: Staphylococcus aureus SG 511; assay: as above; format: cell-based; conditions: SG511; Table 1 strain 4: Staphylococcus aureus SG 511
[5] = tested on: Staphylococcus aureus 285; assay: as above; format: cell-based; conditions: Table 1 strain 5: Staphylococcus aureus 285; read-out: MIC
[6] = tested on: Staphylococcus aureus 503; assay: as above; format: cell-based; conditions: Table 1 strain 6: Staphylococcus aureus 503; read-out: MIC
Escherichia coli DC 0 [7] = assay: as above; format: cell-based; conditions: DC0; Table 1 strain 7: Escherichia coli DC 0
Escherichia coli DC 0 [8] = assay: as above; format: cell-based; conditions: DC0; Table 1 strain 8: Escherichia coli DC 0
Escherichia coli DC 2 = assay: as above; format: cell-based; conditions: DC2; Table 1 strain 9: Escherichia coli DC 2; read-out: MIC
Escherichia coli OTEM = assay: as above; format: cell-based; conditions: Table 1 strain 10: Escherichia coli OTEM
Escherichia coli 1507 E = assay: as above; format: cell-based; conditions: Table 1 strain 11: Escherichia coli 1507 E
[9] = tested on: Pseudomonas aeruginosa 9027; assay: as above; format: cell-based; conditions: Table 1 strain 12: Pseudomonas aeruginosa 9027
[10] = tested on: Pseudomonas aeruginosa 1592 E; assay: as above; format: cell-based; conditions: Table 1 strain 13: Pseudomonas aeruginosa 1592 E
[11] = tested on: Pseudomonas aeruginosa 1771; assay: as above; format: cell-based; conditions: Table 1 strain 14: Pseudomonas aeruginosa 1771
[12] = tested on: Pseudomonas aeruginosa 1771 M; assay: as above; format: cell-based; conditions: Table 1 strain 15: Pseudomonas aeruginosa 1771 M
Salmonella typhimurium = assay: as above; format: cell-based; conditions: Salmonella enterica; Table 1 strain 16: Salmonella typhimurium
[13] = tested on: Klebsiella aerogenes 1082 E; assay: as above; format: cell-based; conditions: Table 1 strain 17: Klebsiella aerogenes 1082 E
[14] = tested on: Klebsiella aerogenes 1522 E; assay: as above; format: cell-based; conditions: Table 1 strain 18: Klebsiella aerogenes 1522 E
[15] = tested on: Enterobacter cloacae P 99; assay: as above; format: cell-based; conditions: P99; Table 1 strain 19: Enterobacter cloacae P 99
[16] = tested on: Enterobacter cloacae 1321 E; assay: as above; format: cell-based; conditions: Table 1 strain 20: Enterobacter cloacae 1321 E
[17] = tested on: Staphylococcus aureus 88 E; assay: In vitro anti-bacterial activity test (MIC, two-fold dilution method), Table 2 strains; format: cell-based; conditions: Table 2 strain 1: Staphylococcus aureus 88 E
[18] = tested on: Staphylococcus aureus 121 E; assay: as above; format: cell-based; conditions: Table 2 strain 2: Staphylococcus aureus 121 E; read-out: MIC
[19] = tested on: Staphylococcus aureus 208 E; assay: as above; format: cell-based; conditions: Table 2 strain 3: Staphylococcus aureus 208 E; read-out: MIC
[20] = tested on: Staphylococcus aureus 256 E; assay: as above; format: cell-based; conditions: Table 2 strain 4: Staphylococcus aureus 256 E
[21] = tested on: Staphylococcus aureus 690 E; assay: as above; format: cell-based; conditions: Table 2 strain 5: Staphylococcus aureus 690 E; read-out: MIC
[22] = tested on: Staphylococcus aureus 692 E; assay: as above; format: cell-based; conditions: Table 2 strain 6: Staphylococcus aureus 692 E
[23] = tested on: Staphylococcus aureus 693 E; assay: as above; format: cell-based; conditions: Table 2 strain 7: Staphylococcus aureus 693 E; read-out: MIC
[24] = tested on: Staphylococcus aureus 694 E; assay: as above; format: cell-based; conditions: Table 2 strain 8: Staphylococcus aureus 694 E; read-out: MIC
[25] = tested on: Staphylococcus aureus 695 E; assay: as above; format: cell-based; conditions: Table 2 strain 9: Staphylococcus aureus 695 E; read-out: MIC
[26] = tested on: Staphylococcus aureus 697 E; assay: as above; format: cell-based; conditions: Table 2 strain 10: Staphylococcus aureus 697 E
[27] = tested on: Staphylococcus aureus 701 E; assay: as above; format: cell-based; conditions: Table 2 strain 11: Staphylococcus aureus 701 E; read-out: MIC
[28] = tested on: Staphylococcus aureus 703 E; assay: as above; format: cell-based; conditions: Table 2 strain 12: Staphylococcus aureus 703 E; read-out: MIC
[29] = tested on: Staphylococcus aureus 705 E; assay: as above; format: cell-based; conditions: Table 2 strain 13: Staphylococcus aureus 705 E; read-out: MIC
[30] = tested on: Staphylococcus aureus 706 E; assay: as above; format: cell-based; conditions: Table 2 strain 14: Staphylococcus aureus 706 E; read-out: MIC
[31] = tested on: Staphylococcus aureus 707 E; assay: as above; format: cell-based; conditions: Table 2 strain 15: Staphylococcus aureus 707 E; read-out: MIC
[32] = tested on: Staphylococcus aureus 708 E; assay: as above; format: cell-based; conditions: Table 2 strain 16: Staphylococcus aureus 708 E
[33] = tested on: Staphylococcus aureus 711 E; assay: as above; format: cell-based; conditions: Table 2 strain 17: Staphylococcus aureus 711 E; read-out: MIC
[34] = tested on: Staphylococcus aureus 714 E; assay: as above; format: cell-based; conditions: Table 2 strain 18: Staphylococcus aureus 714 E; read-out: MIC
[35] = tested on: Staphylococcus aureus 725 E; assay: as above; format: cell-based; conditions: Table 2 strain 19: Staphylococcus aureus 725 E; read-out: MIC
P. mirabilis = assay: Preventive effect against the systemic infection; format: in vivo; conditions: Proteus mirabilis, 168 h, NMRI mice, survival on day 7, read-out: ED₅₀
Procedure: (§1) 10 fold of the pathogen which leads to 100% lethality were injected intraperitoneally to male and female NMRI mice weighing 18 to 20g. Immediately and after 4 hours, the dose of test compounds which was determined by two-fold serial dilution method was administered orally or subcutaneously; and on day 7, the effectiveness was evaluated in terms of ED₅₀ calculated from the number of survived mice by the probit analysis.

S. aureus 17740 = assay: Preventive effect against the systemic infection; format: in vivo; conditions: Staphylococcus aureus, 168 h, NMRI mice, survival on day 7, read-out: ED₅₀
Procedure: as §1

Acute Toxicity Test = conditions: mouse, in vivo, female ICR mice, day 14, read-out: Acute Toxicity(LD₅₀)
Procedure: Test compounds were administered to female ICR mice weighing 20 to 25g and on day 14, LD₅₀ was calculated from the number of survived mice by the probit analysis.

CNC1CC12CCN(c1c(F)cc3c(=O)c(C(=O)O)cn(C4CC4)c3c1F)C2 (centres unmarked) [Example 8, 7-(1-methylamino-5-azaspiro[2,4]heptane-5-yl)-1-cyclopropyl-6,8-difluoro-1,4-dihydro-4-oxo-quinoline-3-carboxylic acid]
0.391 mg/L: MIC [1] | MIC (Escherichia coli DC 0 [8]) | MIC [12] | MIC [24]
0.098 mg/L: MIC (Escherichia coli DC 2) | MIC [14] | MIC [17] | MIC [18] | MIC [19] | MIC [30] | MIC [35]
0.025 mg/L: MIC [16]
0.195 mg/L: MIC [2] | MIC [3] | MIC [20] | MIC [27] | MIC [28] | MIC [29] | MIC [31]
0.049 mg/L: MIC [4] | MIC [5] | MIC [6] | MIC (Escherichia coli OTEM) | MIC (Escherichia coli 1507 E) | MIC (Salmonella typhimurium) | MIC [15] | MIC [21] | MIC [22] | MIC [23] | MIC [25] | MIC [26] | MIC [32] | MIC [33] | MIC [34]
0.013 mg/L: MIC (Escherichia coli DC 0 [7])
1.56 mg/L: MIC [9] | MIC [10] | MIC [11]
0.004 mg/L: MIC [13]

Nc1c(F)c(N2CCC3(CC3N)C2)c(F)c2c1c(=O)c(C(=O)O)cn2C1CC1 (centres unmarked) [Example 7, 7-(1-amino-5-azaspiro[2,4]heptane-5-yl)-1-cyclopropyl-5-amino-6,8-difluoro-1,4-dihydro-4-oxo-quinoline-3-carboxylic acid]
0.013 mg/L: MIC [16] | MIC [21] | MIC [22] | MIC [23] | MIC [25] | MIC [26] | MIC [34]
0.025 mg/L: MIC [4] | MIC [5] | MIC [6] | MIC (Escherichia coli OTEM) | MIC (Salmonella typhimurium) | MIC [15] | MIC [18] | MIC [19] | MIC [20] | MIC [24] | MIC [27] | MIC [28] | MIC [29] | MIC [30] | MIC [31] | MIC [35]
0.391 mg/L: MIC [1] | MIC [3] | MIC (Escherichia coli DC 0 [8]) | MIC [12]
0.007 mg/L: MIC (Escherichia coli DC 0 [7]) | MIC [13] | MIC [32] | MIC [33]
0.781 mg/L: MIC [11]
0.195 mg/L: MIC [2]
1.56 mg/L: MIC [9] | MIC [10]
0.098 mg/L: MIC (Escherichia coli DC 2) | MIC (Escherichia coli 1507 E) | MIC [14] | MIC [17]

NC1CC12CCN(c1c(F)cc3c(=O)c(C(=O)O)cn(C4CC4)c3c1F)C2 (centres unmarked) [Example 1, 7-(1-amino-5-azaspiro[2,4]heptane-5-yl)-1-cyclopropyl-6,8-difluoro-1,4-dihydro-4-oxoquinoline-3-carboxylic acid]
7.13 mg/kg: ED50 (P. mirabilis; Oral Administration)
0.098 mg/L: MIC [2]
3800 mg/kg: LD50 (Acute Toxicity Test; Oral Administration)
0.391 mg/L: MIC [10] | MIC [11]
1.36 mg/kg: ED50 (P. mirabilis; sc, Subcutaneous Injection)
605 mg/kg: LD50 (Acute Toxicity Test; ip, Intraperitoneal Injection)
0.195 mg/L: MIC [1] | MIC [3] | MIC (Escherichia coli DC 0 [8]) | MIC [12]
0.049 mg/L: MIC (Escherichia coli DC 2)
0.781 mg/L: MIC [9]
0.013 mg/L: MIC (Escherichia coli OTEM) | MIC (Escherichia coli 1507 E) | MIC (Salmonella typhimurium) | MIC [14] | MIC [15]
0.025 mg/L: MIC [4] | MIC [5] | MIC [6]
128 mg/kg: ED50 (S. aureus 17740; Oral Administration)
0.004 mg/L: MIC (Escherichia coli DC 0 [7]) | MIC [13] | MIC [16]
16.8 mg/kg: ED50 (S. aureus 17740; sc, Subcutaneous Injection)

From patent EP0550016A1, “Novel quinolone carboxylic acid derivatives and processes for preparing same” (KOREA RESEARCH INSTITUTE OF CHEMICAL TECHNOLOGY, priority 1991, dated 1993)
